Data set [1] can be described thus: Therapeutic index, ratio of CC50 for african green monkey Vero E6 cells to EC50 for SARS coronavirus infected in african green monkey Vero E6 cells. It counts as cell-based. Particulars: read-out: Ratio CC50/EC50; call rule not given here.
The nature of data set [2]: (§1) Inhibition of SARS coronavirus papain-like protease (amino acids 1541 to 1855) expressed in Escherichia coli BL21 (DE3) cells assessed as decrease in AMC release using Z-RLRGG-AMC as substrate by multimode plate reader analysis. On the set-up: species or system Severe acute respiratory syndrome-related coronavirus.
For data set [3], the target named is T1, Ubiquitin carboxyl-terminal hydrolase 7 (Homo sapiens, UniProt Q93009). The data set can be described thus: Inhibition of human USP7 using Ub-rhodamine 110 as substrate at 31 uM.
Target sequence in this assay (Q93009 whole entry, looked up): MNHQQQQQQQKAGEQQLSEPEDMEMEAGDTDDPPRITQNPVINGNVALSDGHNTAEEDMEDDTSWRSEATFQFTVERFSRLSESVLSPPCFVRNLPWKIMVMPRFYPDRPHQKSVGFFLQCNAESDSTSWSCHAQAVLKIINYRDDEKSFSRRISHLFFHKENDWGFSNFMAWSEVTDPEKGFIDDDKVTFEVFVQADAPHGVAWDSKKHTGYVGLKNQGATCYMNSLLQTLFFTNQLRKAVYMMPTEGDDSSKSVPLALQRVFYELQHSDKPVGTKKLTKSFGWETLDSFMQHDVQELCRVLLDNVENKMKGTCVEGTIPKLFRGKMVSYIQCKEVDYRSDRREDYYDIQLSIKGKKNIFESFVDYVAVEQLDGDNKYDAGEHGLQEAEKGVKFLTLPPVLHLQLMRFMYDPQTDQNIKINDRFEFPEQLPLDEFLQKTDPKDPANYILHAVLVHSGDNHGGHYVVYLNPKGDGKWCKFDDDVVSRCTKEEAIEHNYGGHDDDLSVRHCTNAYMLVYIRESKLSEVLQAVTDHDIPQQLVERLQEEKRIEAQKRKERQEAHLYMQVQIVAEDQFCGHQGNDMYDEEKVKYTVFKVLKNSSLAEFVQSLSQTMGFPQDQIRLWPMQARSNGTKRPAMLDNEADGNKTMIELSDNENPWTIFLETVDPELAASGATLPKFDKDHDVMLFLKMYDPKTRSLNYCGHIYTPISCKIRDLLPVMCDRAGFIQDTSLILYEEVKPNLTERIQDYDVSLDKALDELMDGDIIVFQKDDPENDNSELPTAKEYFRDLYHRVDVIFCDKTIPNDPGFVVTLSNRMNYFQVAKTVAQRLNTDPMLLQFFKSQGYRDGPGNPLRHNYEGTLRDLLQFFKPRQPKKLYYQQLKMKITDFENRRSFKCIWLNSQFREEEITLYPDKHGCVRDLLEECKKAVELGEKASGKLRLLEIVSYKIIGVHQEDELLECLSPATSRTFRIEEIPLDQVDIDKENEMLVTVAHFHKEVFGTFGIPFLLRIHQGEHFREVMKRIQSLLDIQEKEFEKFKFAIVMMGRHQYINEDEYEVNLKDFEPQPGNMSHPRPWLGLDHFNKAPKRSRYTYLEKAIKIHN
Data set [4] addresses T2, Ubiquitin carboxyl-terminal hydrolase 8 (Homo sapiens) (UniProt P40818).
T2 sequence (whole entry): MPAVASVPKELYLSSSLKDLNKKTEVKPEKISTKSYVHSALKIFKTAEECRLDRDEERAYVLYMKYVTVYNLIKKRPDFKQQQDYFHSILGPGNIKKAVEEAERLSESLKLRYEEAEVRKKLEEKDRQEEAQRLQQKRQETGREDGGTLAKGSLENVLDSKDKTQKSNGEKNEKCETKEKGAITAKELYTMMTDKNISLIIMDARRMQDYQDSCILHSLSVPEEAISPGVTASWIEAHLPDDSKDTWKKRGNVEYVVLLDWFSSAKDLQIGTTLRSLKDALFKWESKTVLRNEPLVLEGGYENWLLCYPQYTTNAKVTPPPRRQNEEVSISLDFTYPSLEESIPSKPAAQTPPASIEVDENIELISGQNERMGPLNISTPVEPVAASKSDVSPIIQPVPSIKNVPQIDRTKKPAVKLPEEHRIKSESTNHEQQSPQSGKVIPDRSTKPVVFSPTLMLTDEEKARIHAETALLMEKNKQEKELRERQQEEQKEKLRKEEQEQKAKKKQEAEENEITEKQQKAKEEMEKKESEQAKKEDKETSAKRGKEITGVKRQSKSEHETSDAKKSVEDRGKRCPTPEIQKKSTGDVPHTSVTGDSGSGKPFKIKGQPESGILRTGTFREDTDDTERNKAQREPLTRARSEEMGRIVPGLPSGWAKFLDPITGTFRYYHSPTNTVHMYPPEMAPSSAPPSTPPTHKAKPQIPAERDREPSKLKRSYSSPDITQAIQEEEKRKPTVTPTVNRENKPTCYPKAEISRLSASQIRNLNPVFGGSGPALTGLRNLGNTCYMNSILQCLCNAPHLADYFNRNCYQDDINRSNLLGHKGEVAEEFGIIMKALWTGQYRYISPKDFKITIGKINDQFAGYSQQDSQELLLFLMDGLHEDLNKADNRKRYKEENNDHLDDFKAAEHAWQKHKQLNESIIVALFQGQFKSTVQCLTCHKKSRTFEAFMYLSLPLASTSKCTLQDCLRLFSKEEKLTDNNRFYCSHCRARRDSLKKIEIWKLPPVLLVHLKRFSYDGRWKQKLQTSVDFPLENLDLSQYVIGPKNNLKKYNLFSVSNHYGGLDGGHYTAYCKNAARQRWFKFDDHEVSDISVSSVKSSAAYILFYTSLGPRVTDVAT
Kind of data set: Inhibition of human USP8 using Ub-rhodamine 110 as substrate at 31 uM.

The target in data set [5] is T3, Ubiquitin carboxyl-terminal hydrolase 21 (Homo sapiens) (UniProt Q9UK80).
T3 sequence (whole entry): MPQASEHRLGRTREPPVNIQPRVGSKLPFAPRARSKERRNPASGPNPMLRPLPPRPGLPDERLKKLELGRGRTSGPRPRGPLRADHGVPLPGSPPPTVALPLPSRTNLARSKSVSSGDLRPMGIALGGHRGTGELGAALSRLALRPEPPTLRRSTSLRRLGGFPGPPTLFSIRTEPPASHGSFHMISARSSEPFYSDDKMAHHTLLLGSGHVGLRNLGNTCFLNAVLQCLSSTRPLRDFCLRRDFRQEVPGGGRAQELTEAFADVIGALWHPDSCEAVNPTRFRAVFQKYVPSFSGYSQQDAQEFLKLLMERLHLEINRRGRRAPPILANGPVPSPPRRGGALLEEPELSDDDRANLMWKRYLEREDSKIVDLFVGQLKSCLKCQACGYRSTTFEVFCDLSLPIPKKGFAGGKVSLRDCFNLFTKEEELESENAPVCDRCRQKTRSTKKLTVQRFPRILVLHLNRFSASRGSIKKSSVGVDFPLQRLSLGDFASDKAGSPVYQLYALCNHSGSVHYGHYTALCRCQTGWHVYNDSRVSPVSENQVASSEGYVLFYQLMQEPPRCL
The data set can be described thus: Inhibition of human USP21 using Ub-rhodamine 110 as substrate at 31 uM.

The target in data set [6] is Ubiquitin carboxyl-terminal hydrolase isozyme L1 (Homo sapiens) (UniProt P09936). Kind of data set: Inhibition of human UCHL1 at 31 uM.
Ubiquitin carboxyl-terminal hydrolase isozyme L1 (Homo sapiens), sequence (P09936 whole entry, looked up): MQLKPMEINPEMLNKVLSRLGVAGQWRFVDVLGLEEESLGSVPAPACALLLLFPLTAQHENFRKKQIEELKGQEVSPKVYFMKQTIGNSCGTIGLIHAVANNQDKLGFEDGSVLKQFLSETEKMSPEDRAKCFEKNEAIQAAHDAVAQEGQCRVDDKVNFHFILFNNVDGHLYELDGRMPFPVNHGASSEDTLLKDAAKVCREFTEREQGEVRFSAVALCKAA
For data set [7], the target named is T4, Cathepsin K (Homo sapiens) (UniProt P43235).
T4 sequence (whole entry): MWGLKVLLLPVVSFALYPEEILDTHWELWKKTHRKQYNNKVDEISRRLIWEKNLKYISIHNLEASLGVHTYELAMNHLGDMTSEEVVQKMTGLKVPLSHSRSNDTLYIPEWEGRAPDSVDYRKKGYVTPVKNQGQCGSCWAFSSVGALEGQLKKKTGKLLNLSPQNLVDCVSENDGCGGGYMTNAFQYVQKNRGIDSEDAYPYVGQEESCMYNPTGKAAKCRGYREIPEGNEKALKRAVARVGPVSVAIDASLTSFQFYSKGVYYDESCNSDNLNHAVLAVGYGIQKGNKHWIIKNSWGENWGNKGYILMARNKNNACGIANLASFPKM
The data set can be described thus: Inhibition of human cathepsin K using fluorogenic peptide as substrate at 31 uM.

Data set [8] addresses T1, Ubiquitin carboxyl-terminal hydrolase 7. The data set can be described thus: Inhibition of human USP7 using Ub-rhodamine 110 as substrate.
Target sequence in this assay (Q93009 whole entry): as the sequence (Q93009 whole entry, looked up) above
The target of data set [9] is T5, Ubiquitin carboxyl-terminal hydrolase 8 (Homo sapiens, UniProt P40818).
T5 sequence (P40818 whole entry): T2 sequence (whole entry)
Kind of data set: Inhibition of human USP8 using Ub-rhodamine 110 as substrate.

Data set [10] addresses T6, Ubiquitin carboxyl-terminal hydrolase 21 (Homo sapiens, UniProt Q9UK80).
T6 sequence (Q9UK80 whole entry): T3 sequence (whole entry)
The data set can be described thus: Inhibition of human USP21 using Ub-rhodamine 110 as substrate.

The next data set addresses T7, Cathepsin K (Homo sapiens, UniProt P43235).
T7 sequence (P43235 whole entry): T4 sequence (whole entry)
Kind of data set: Inhibition of human cathepsin K using fluorogenic peptide as substrate.

In the next data set the test system is Liver. Kind of data set: Half life in mouse liver microsomes at 1 uM. The format is ADME.
In the next data set the test system is BL21-DE3. The description is as §1. Particulars: Severe acute respiratory syndrome-related coronavirus.
For data set [11], the target named is Replicase polyprotein 1a (Human coronavirus NL63) (UniProt P0C6U6). The data set can be described thus: (§2) Inhibition of human coronavirus NL63 PLP2 (amino acids 1565 to 1894) expressed in Escherichia coli BL21 (DE3) cells assessed as reduction of AMC release using Z-RLRGG-AMC as substrate by multimode plate reader analysis.
Replicase polyprotein 1a (Human coronavirus NL63), sequence (P0C6U6 899-2462 limits assumed): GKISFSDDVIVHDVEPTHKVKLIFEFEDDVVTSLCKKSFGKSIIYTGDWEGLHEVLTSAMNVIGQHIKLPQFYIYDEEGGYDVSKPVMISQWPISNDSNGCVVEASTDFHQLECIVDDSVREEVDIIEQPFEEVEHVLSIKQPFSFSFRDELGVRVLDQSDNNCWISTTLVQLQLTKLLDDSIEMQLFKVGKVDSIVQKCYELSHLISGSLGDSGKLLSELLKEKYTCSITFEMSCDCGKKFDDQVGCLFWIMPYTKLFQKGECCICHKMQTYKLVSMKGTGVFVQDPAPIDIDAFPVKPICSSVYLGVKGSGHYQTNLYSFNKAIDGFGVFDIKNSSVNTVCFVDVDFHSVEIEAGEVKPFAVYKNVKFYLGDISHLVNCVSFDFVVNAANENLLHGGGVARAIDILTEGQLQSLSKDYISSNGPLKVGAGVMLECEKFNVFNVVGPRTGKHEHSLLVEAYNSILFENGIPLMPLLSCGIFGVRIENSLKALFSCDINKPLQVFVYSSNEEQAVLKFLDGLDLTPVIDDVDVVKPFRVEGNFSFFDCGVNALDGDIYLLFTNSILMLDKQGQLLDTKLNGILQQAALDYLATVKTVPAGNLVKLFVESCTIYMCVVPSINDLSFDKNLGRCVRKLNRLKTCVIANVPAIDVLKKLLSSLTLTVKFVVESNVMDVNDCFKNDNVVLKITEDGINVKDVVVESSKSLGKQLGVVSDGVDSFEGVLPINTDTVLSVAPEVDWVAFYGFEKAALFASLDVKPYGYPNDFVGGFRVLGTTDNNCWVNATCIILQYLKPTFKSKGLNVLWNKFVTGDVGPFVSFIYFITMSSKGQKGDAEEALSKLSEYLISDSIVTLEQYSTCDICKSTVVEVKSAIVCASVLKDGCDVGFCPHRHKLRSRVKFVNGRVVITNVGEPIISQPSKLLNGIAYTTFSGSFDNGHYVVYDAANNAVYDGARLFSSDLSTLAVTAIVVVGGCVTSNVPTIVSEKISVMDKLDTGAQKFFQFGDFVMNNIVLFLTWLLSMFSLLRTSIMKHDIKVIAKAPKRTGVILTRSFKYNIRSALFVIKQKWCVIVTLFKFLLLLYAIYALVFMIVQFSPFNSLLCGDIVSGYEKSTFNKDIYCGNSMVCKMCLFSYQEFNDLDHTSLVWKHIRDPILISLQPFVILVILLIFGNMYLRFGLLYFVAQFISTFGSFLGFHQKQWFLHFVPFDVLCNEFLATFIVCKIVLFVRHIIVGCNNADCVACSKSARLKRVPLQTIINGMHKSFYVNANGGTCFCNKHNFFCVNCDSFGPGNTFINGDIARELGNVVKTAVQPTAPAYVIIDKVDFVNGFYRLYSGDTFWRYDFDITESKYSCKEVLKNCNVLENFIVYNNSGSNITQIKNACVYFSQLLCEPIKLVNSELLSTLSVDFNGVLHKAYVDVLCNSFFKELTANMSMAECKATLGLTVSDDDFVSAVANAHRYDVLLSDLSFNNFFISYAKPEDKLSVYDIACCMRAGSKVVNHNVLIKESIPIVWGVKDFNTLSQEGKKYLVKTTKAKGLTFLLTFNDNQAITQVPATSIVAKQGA
In a further data set the target is Replicase polyprotein 1a (Human coronavirus NL63, UniProt P0C6U6). The data set is described as §2.
Replicase polyprotein 1a, sequence (P0C6U6 899-2462 limits assumed): as above

The IC50 is the concentration that inhibits the measured activity by half. What is called inhibition is the drop in the measured response relative to a control, in per cent.

Each structure is given as a SMILES string. A value given as a limit tells only on which side of the number the result lay.

On to `C[C@H](c1cccc2ccccc12)N1CCC(C(=O)NCc2ccc(F)cc2)CC1`, for which the selectivity ratio in [1] was > 8.6. Also, the IC50 in data set [2] was 0.49 µM; in data set [8], “Not Active”; in [9] it was > 100 µM; in data set [10] it was > 31 µM; against Cathepsin K it was “Not Active”. The inhibition was < 10% in [3]; 10% in data set [4]; 15% in data set [5]; < 10% in [6]; < 10% in data set [7].
Take `C[C@H](c1cccc2ccccc12)N1CCC(C(=O)NCc2cccc(F)c2)CC1`: in data set [1], the selectivity ratio is > 18.5. The t1/2 in the data set with Liver was found to be 2.8 min. The IC50 in data set [2] was 0.15 µM; in [8], “Not Active”; in [9], > 100 µM; in [10], > 31 µM; against Cathepsin K, “Not Active”; on Replicase polyprotein 1a, 33 µM. For the same compound, the Imax with BL21-DE3 is 100%; in data set [11], 57%. Further, the inhibition in [3] was < 10%; in [4], 10%; in data set [5], 15%; in [6], < 10%; in data set [7] it was < 10%.
For the compound `CC(=O)Nc1cccc(CNC(=O)C2CCN([C@H](C)c3cccc4ccccc34)CC2)c1`, the selectivity ratio in data set [1] was > 12. The compound also yielded a t1/2 in the data set on Liver of 7 min. Moreover, the IC50 in data set [2] is 0.39 µM; in data set [8] (read-out: IC50) it was > 100 µM; in data set [9], > 100 µM; in [10] it was > 31 µM; against Cathepsin K it was “Not Active”; on Replicase polyprotein 1a, 46 µM. The Imax with BL21-DE3 was 100%; in data set [11] it was 71%. Further, the inhibition in data set [3] is 10%; in [4] it was 10%; in [5] it was 15%; in data set [6], < 10%; in [7], < 10%.
In the data set on Liver, `C[C@H](c1cccc2ccccc12)N1CCC(C(=O)NCc2ccc3c(c2)OCO3)CC1` showed a t1/2 of 1.6 min. Further, the IC50 in data set [2] was 0.67 µM; in data set [8], “Not Active”; in [9], > 100 µM; in data set [10], > 31 µM; at Cathepsin K it was “Not Active”; on Replicase polyprotein 1a, 18 µM. Also, the Imax came out at 99% in the data set on BL21-DE3 and 46% in data set [11]. The inhibition in data set [3] is < 10%; in data set [4] it was 10%; in [5] it was 15%; in data set [6], < 10%; in data set [7] it was < 10%.
